Four molecules from ChEMBL document CHEMBL5143555, “Potentiating the intracellular killing of Staphylococcus aureus by dihydroquinazoline analogues as NorA efflux pump inhibitor” (Bioorg Med Chem, 2022) can be followed below.

In brackets after ≈: the same amount, converted by molar mass. Activity calls are given as the source filed them. The rule behind the calls is not given here. Where only a bound is given, the exact number is not on record here.

Series [1] relates to Staphylococcus aureus. In words: Antibacterial activity against Staphylococcus aureus 1199B measured after 24 hrs by Muller Hinton broth based MTT assay. Format: functional. (In general: Formazan colour is commonly taken as a measure of viable cells.)
Series [2] concerns Staphylococcus aureus. Description: Antibacterial activity against Staphylococcus aureus 1199 measured after 24 hrs by Muller Hinton broth based MTT assay. Format: functional.
The test system of series [3] is Staphylococcus aureus. In words: Antibacterial activity against Staphylococcus aureus K1758 measured after 24 hrs by Muller Hinton broth based MTT assay. Format: functional.
For series [4], the system named is Staphylococcus aureus. In words: Bactericidal activity against Staphylococcus aureus 1199B at 50 ug/mL by time-kill kinetics assay. Particulars: dose 50.0 µg/ml. Format: functional, organism-based.
Series [5] relates to Staphylococcus aureus. In words: Bactericidal activity against Staphylococcus aureus 1199B assessed as bacterial count at 3.1 ug/mL measured after 24 hrs by time-kill kinetics assay. It counts as functional. Particulars: dose 3.1 µg/ml.
Series [6] relates to Staphylococcus aureus. In words: Up regulation of NorA gene expression in Staphylococcus aureus 1199B at 1.55 ug/ml measured after 2 hrs by qRT-PCR analysis relative to control. It counts as functional. Particulars: dose 1.55 µg/ml. (Quantitative PCR measures a nucleic acid by following its amplification.)
The target in series [7] is T1, Quinolone resistance protein NorA (Staphylococcus aureus) (UniProt P0A0J7).
T1 sequence (whole entry): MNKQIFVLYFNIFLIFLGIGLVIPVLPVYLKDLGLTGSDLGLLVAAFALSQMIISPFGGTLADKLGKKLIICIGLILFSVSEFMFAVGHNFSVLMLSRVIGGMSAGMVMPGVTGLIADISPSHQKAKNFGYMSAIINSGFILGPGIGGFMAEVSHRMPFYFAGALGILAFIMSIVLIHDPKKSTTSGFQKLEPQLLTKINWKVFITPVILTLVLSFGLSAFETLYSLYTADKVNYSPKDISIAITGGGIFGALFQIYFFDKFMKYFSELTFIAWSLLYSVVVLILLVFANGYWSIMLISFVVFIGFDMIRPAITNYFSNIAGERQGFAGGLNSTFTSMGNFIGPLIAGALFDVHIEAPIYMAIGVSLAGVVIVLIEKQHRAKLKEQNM
Description: Inhibition of NorA in Staphylococcus aureus 1199B infected human THP-1 cells assessed as potentiation of norfloxacin-induced bactericidal activity by measuring reduction in bacterial count at 1.7 to 3.4 ug/ml measured after 24 hrs relative to control. Format: cell-based. The conditions noted are these: dose 1.7-3.4 µg/ml.

Series [8] concerns the target T1, Quinolone resistance protein NorA (Staphylococcus aureus). In words: Inhibition of NorA in Staphylococcus aureus 1199B assessed as accumulation of norfloxacin at 3.9 ug/ml by measuring fluorescence intensity measured at 5 mins interval for 40 mins by fluorescence spectrophotometry. The conditions noted are these: dose 3.9 µg/ml.
Series [9] shares this target. Description: Inhibition of NorA in Staphylococcus aureus 1199B assessed as potentiation of norfloxacin-induced antibacterial activity by measuring Norfloxacin MIC at sub MIC.
Series [10] shares this target. Description: Inhibition of NorA in Staphylococcus aureus 1199B assessed as potentiation of norfloxacin-induced antibacterial activity by measuring Norfloxacin MIC at sub MIC relative to norfloxacin MIC alone.
Series [11] shares this target. Description: Inhibition of NorA in Staphylococcus aureus 1199B assessed as potentiation of norfloxacin-induced antibacterial activity by measuring fractional inhibitory concentration.
Series [12] shares this target. Description: Inhibition of NorA in Staphylococcus aureus 1199B assessed as potentiation of ethidium bromide-induced antibacterial activity by measuring ethidium bromide MIC at sub MIC.
Series [13] has the same target. Description: Inhibition of NorA in Staphylococcus aureus 1199B assessed as potentiation of ethidium bromide-induced antibacterial activity by measuring ethidium bromide MIC at sub MIC relative to ethidium bromide MIC alone.
Series [14] shares this target. In words: Inhibition of NorA in Staphylococcus aureus 1199B assessed as potentiation of ethidium bromide-induced antibacterial activity by measuring fractional inhibitory concentration.
Series [15] has the same target. In words: Inhibition of NorA in Staphylococcus aureus 1199B assessed as potentiation of 3.1 ug/mL norfloxacin-induced bactericidal activity by measuring log reduction in bacterial count at 7.8 ug/mL measured after 4 hrs by time-kill kinetics assay. Particulars: dose 7.8 µg/ml.
For series [16] the target is unchanged. In words: Inhibition of NorA in Staphylococcus aureus 1199B assessed as potentiation of 3.1 ug/mL ethidium bromide-induced bactericidal activity by measuring log reduction in bacterial count at sub MIC measured within 4 hrs by time-kill kinetics assay.
Series [17] in a line: Cytotoxicity against kidney epithelial cells (unknown origin) assessed as cell viability at 50 ug/mL measured after 24 hrs by alamar blue assay relative to control. The conditions noted are these: at 50 µg/mL, read-out: Activity. It counts as toxicity, cell-based, Fetal kidney cell. In general terms: Alamar Blue is a resazurin reagent that responds to reducing activity.
For series [18], the target named is T1, Quinolone resistance protein NorA (Staphylococcus aureus). In words: Inhibition of NorA in Staphylococcus aureus 1199B assessed as potentiation of norfloxacin-induced morphological changes by measuring appearance of lysed cell at sub MIC by field emission scanning electron microscopy.
Series [19] shares this target. Description: Inhibition of NorA in Staphylococcus aureus 1199B assessed as accumulation of ethidium bromide at 3.9 ug/ml by measuring fluorescence intensity measured at 5 mins interval for 40 mins by fluorescence spectrophotometry. Particulars: dose 3.9 µg/ml.
Series [20] concerns Staphylococcus aureus. In words: Down regulation of NorA gene expression in Staphylococcus aureus 1199B at 3.9 ug/ml measured after 2 hrs by qRT-PCR analysis. The conditions noted are these: dose 3.9 µg/ml. Format: functional.
In series [21] the test system is Staphylococcus aureus. In words: Down regulation of NorA gene expression in Staphylococcus aureus 1199B at 1.55 ug/ml measured after 2 hrs by qRT-PCR analysis relative to control. Format: functional. The conditions noted are these: dose 1.55 µg/ml.
The test system of series [22] is Staphylococcus aureus. Description: Down regulation of NorA gene expression in Staphylococcus aureus 1199B at 1.55 ug/ml measured after 2 hrs in presence of norfloxacin by qRT-PCR analysis relative to norfloxacin. It counts as functional. The conditions noted are these: dose 1.55 µg/ml.
The target in series [23] is T1, Quinolone resistance protein NorA (Staphylococcus aureus). Description: Inhibition of NorA in Staphylococcus aureus 1199B infected human THP-1 cells assessed as potentiation of norfloxacin-induced bactericidal activity by measuring reduction in bacterial count at modulatory concentration measured after 24 hrs. Format: cell-based.
For series [24] the target is unchanged. Description: Inhibition of NorA in Staphylococcus aureus 1199B infected human THP-1 cells assessed as potentiation of norfloxacin-induced bactericidal activity by measuring reduction in bacterial count at modulatory concentration measured after 24 hrs relative to control. Format: cell-based.
The target is the same in series [25]. In words: Inhibition of NorA in Staphylococcus aureus 1199B infected human THP-1 cells assessed as potentiation of norfloxacin-induced bactericidal activity by measuring reduction in intracellular invasion at modulatory concentration measured after 24 hrs. Format: cell-based.
The target is the same in series [26]. In words: Inhibition of NorA in Staphylococcus aureus 1199B infected human THP-1 cells assessed as potentiation of norfloxacin-induced bactericidal activity by measuring reduction in intracellular proliferation at modulatory concentration measured after 24 hrs. It counts as cell-based.
For series [27] the target is unchanged. In words: Inhibition of NorA in Staphylococcus aureus 1199B infected human THP-1 cells assessed as potentiation of 3.1 ug/ml norfloxacin-induced bactericidal activity by measuring log reduction in bacterial count at 15.6 ug/ml measured after 24 hrs relative to control. It counts as cell-based. Particulars: dose 15.6 µg/ml.
Series [28] shares this target. Description: Inhibition of NorA in Staphylococcus aureus 1199B infected human THP-1 cells assessed as potentiation of norfloxacin-induced bactericidal activity by measuring log reduction in bacterial count measured after 24 hrs relative to vancomycin. It counts as cell-based.
Series [29] has as its system Staphylococcus aureus. In words: Bactericidal activity against Staphylococcus aureus 1199B assessed as log reduction in bacterial count at 50 ug/mL measured after 8 hrs by time-kill kinetics assay. It counts as functional. The conditions noted are these: dose 50 µg/ml.

Regarding `CCn1cc(C(=O)O)c(=O)c2cc(F)c(N3CCNCC3)cc21` [NORFLOXACIN], the MIC in the series on Staphylococcus aureus [1] is 50 µg/mL (≈ 157 µM); against Staphylococcus aureus [2] it was 1.56 µg/mL (≈ 4.89 µM); against Staphylococcus aureus [3] it was 0.2 µg/mL (≈ 0.626 µM). In the series with Staphylococcus aureus [4], the inhibition result was “Active”. For the same molecule, the Activity with Staphylococcus aureus [5] stood at 6 log10CFU/ml. Also, in the series on Staphylococcus aureus [6], the fold change (FC) came to 0.076.

As to `CN[C@H](CC(C)C)C(=O)N[C@H]1C(=O)N[C@@H](CC(N)=O)C(=O)N[C@H]2C(=O)N[C@H]3C(=O)N[C@H](C(=O)N[C@H](C(=O)O)c4cc(O)cc(O)c4-c4cc3ccc4O)[C@H](O)c3ccc(c(Cl)c3)Oc3cc2cc(c3O[C@@H]2O[C@H](CO)[C@@H](O)[C@H](O)[C@H]2O[C@H]2C[C@](C)(N)[C@H](O)[C@H](C)O2)Oc2ccc(cc2Cl)[C@H]1O` [VANCOMYCIN], the figures for the MIC in the series with Staphylococcus aureus [1], with Staphylococcus aureus [2] and against Staphylococcus aureus [3] were 1.7 µg/mL (≈ 1.17 µM), 0.42 µg/mL (≈ 0.29 µM) and 0.1 µg/mL (≈ 0.069 µM), respectively. Also, the fold change (FC) in [7] amounted to 2.

Regarding `Fc1ccccc1C1=NC(c2ccco2)Nc2ccc(Cl)cc21` (stereo unspecified), the Flu intensity in series [8] came out at 28700; in series [19] it was 248. Also, the MIC in the series with Staphylococcus aureus [1] was found to be 500 µg/mL (≈ 1530 µM); in the series on Staphylococcus aureus [2] it was 125 µg/mL (≈ 383 µM); in the series with Staphylococcus aureus [3], 3.9 µg/mL (≈ 11.9 µM); in [9], 3.1 µg/mL; in series [12] it was 3.1 µg/mL. Also, the fold change (FC) in series [10] was 16; in series [13], 16; in the series with Staphylococcus aureus [21], 8; in the series on Staphylococcus aureus [22] it was 9; in series [24] it was 4. Moreover, the fractional inhibitory concentration index (FICI) turned out to be 0.078 in series [11] and 0.125 in series [14]. For the same molecule, the figures for the Activity in series [15], in [16] and in [23] were over 3 log10CFU/ml, over 3 log10CFU/ml and 4.68 log10CFU/ml, respectively. In addition, in series [17], the viability at 24 h, 50 ug/mL worked out at 95.3%. The inhibition entry in [18], in series [25] and in series [26] was “Active” throughout. In addition, the outcome in the series with Staphylococcus aureus [20] was Active. In addition, the FC was determined as 5 in [27] and 3 in series [28].

With `CC[n+]1c(-c2ccccc2)c2cc(N)ccc2c2ccc(N)cc21.[Br-]` [HOMIDIUM BROMIDE], in the series on Staphylococcus aureus [1], the MIC was found to be 50 µg/mL. The Activity in the series with Staphylococcus aureus [29] is over 3 log10CFU/ml.
